In ChEMBL document CHEMBL3774345, “Synthesis of new diarylamides with pyrimidinyl pyridine scaffold and evaluation of their anti-proliferative effect on cancer cell lines” (Bioorg Med Chem Lett, 2016):

Columns and labels:
Assay type in all cases: functional
ACHN = assay: Cytotoxicity against human ACHN cells assessed as cell growth at 10 uM after 24 hrs by SRB assay; settings: read-out: Activity
K562 = assay: Cytotoxicity against human K562 cells assessed as cell growth at 10 uM after 24 hrs by SRB assay; settings: K562, 24 h, read-out: Activity
[1] = Cytotoxicity against human LOXIMVI cells assessed as cell growth at 10 uM after 24 hrs by SRB assay; settings: LOX IMVI, read-out: Activity
[2] = Cytotoxicity against human Caki1 cells assessed as cell growth at 10 uM after 24 hrs by SRB assay; settings: CAKI-1, 24 h, read-out: Activity
Malme-3M = assay: Cytotoxicity against human MALME-3M cells assessed as cell growth at 10 uM after 24 hrs by SRB assay; settings: read-out: Activity
MCF7 = assay: Cytotoxicity against human MCF7 cells assessed as cell growth at 10 uM after 24 hrs by SRB assay; settings: MCF7, 24 h, read-out: Activity
[3] = Cytotoxicity against human SNB19 cells assessed as cell growth at 10 uM after 24 hrs by SRB assay; settings: SNB-19, 24 h, read-out: Activity
[4] = Cytotoxicity against human OVCAR3 cells assessed as cell growth at 10 uM after 24 hrs by SRB assay; settings: OVCAR-3, 24 h, read-out: Activity
[5] = Cytotoxicity against human UACC62 cells assessed as cell growth at 10 uM after 24 hrs by SRB assay; settings: UACC-62, 24 h, read-out: Activity
SK-MEL-28 = assay: Cytotoxicity against human SK-MEL-28 cells assessed as cell growth at 10 uM after 24 hrs by SRB assay; settings: SK-MEL-28, 24 h, read-out: Activity
[6] = Cytotoxicity against human NCI-ADR-RES cells assessed as cell growth at 10 uM after 24 hrs by SRB assay; settings: read-out: Activity
[7] = Cytotoxicity against human DU145 cells assessed as cell growth at 10 uM after 24 hrs by SRB assay; settings: DU-145, 24 h, read-out: Activity
CCRF-CEM = assay: Cytotoxicity against human CCRF-CEM cells assessed as cell growth at 10 uM after 24 hrs by SRB assay; settings: read-out: Activity
A549 = assay: Cytotoxicity against human A549 cells assessed as cell growth at 10 uM after 24 hrs by SRB assay; settings: A549, 24 h, read-out: Activity
[8] = Cytotoxicity against human TK10 cells assessed as cell growth at 10 uM after 24 hrs by SRB assay; settings: TK-10, 24 h, read-out: Activity
[9] = Cytotoxicity against human SNB75 cells assessed as cell growth at 10 uM after 24 hrs by SRB assay; settings: SNB-75, 24 h, read-out: Activity
KM12 = assay: Cytotoxicity against human KM12 cells assessed as cell growth at 10 uM after 24 hrs by SRB assay; settings: KM12, 24 h, read-out: Activity
T47D = assay: Cytotoxicity against human T47D cells assessed as cell growth at 10 uM after 24 hrs by SRB assay; settings: read-out: Activity
SR = assay: Cytotoxicity against human SR cells assessed as cell growth at 10 uM after 24 hrs by SRB assay; settings: read-out: Activity
MDA-MB-435 = assay: Cytotoxicity against human MDA-MB-435 cells assessed as cell growth at 10 uM after 24 hrs by SRB assay; settings: MDA-MB-435, 24 h, read-out: Activity
A498 = assay: Cytotoxicity against human A498 cells assessed as cell growth at 10 uM after 24 hrs by SRB assay; settings: A498, 24 h, read-out: Activity
MDA-MB-468 = assay: Cytotoxicity against human MDA-MB-468 cells assessed as cell growth at 10 uM after 24 hrs by SRB assay; settings: MDA-MB-468, 24 h, read-out: Activity
SK-MEL-2 = assay: Cytotoxicity against human SK-MEL-2 cells assessed as cell growth at 10 uM after 24 hrs by SRB assay; settings: SK-MEL-2, 24 h, read-out: Activity
[10] = Cytotoxicity against human SF539 cells assessed as cell growth at 10 uM after 24 hrs by SRB assay; settings: SF-539, 24 h, read-out: Activity
[11] = Cytotoxicity against human HCC2998 cells assessed as cell growth at 10 uM after 24 hrs by SRB assay; settings: HCC 2998, 24 h, read-out: Activity
M14 = assay: Cytotoxicity against human M14 cells assessed as cell growth at 10 uM after 24 hrs by SRB assay; settings: M14, 24 h, read-out: Activity
NCI-H522 = assay: Cytotoxicity against human NCI-H522 cells assessed as cell growth at 10 uM after 24 hrs by SRB assay; settings: NCI-H522, 24 h, read-out: Activity
EKVX = assay: Cytotoxicity against human EKVX cells assessed as cell growth at 10 uM after 24 hrs by SRB assay; settings: read-out: Activity
NCI-H23 = assay: Cytotoxicity against human NCI-H23 cells assessed as cell growth at 10 uM after 24 hrs by SRB assay; settings: NCI-H23, 24 h, read-out: Activity
MDA-MB-231 = assay: Cytotoxicity against human MDA-MB-231 cells assessed as cell growth at 10 uM after 24 hrs by SRB assay; settings: MDA-MB-231, 24 h, read-out: Activity
[12] = Cytotoxicity against human PC3 cells assessed as cell growth at 10 uM after 24 hrs by SRB assay; settings: PC-3, 24 h, read-out: Activity
[13] = Cytotoxicity against human IGROV1 cells assessed as cell growth at 10 uM after 24 hrs by SRB assay; settings: IGROV-1, 24 h, read-out: Activity
[14] = Cytotoxicity against human UACC257 cells assessed as cell growth at 10 uM after 24 hrs by SRB assay; settings: UACC-257, 24 h, read-out: Activity
SN12C = assay: Cytotoxicity against human SN12C cells assessed as cell growth at 10 uM after 24 hrs by SRB assay; settings: read-out: Activity
[15] = Cytotoxicity against human RXF393 cells assessed as cell growth at 10 uM after 24 hrs by SRB assay; settings: RXF 393, 24 h, read-out: Activity
[16] = Cytotoxicity against human SF268 cells assessed as cell growth at 10 uM after 24 hrs by SRB assay; settings: SF-268, 24 h, read-out: Activity
[17] = Cytotoxicity against human OVCAR4 cells assessed as cell growth at 10 uM after 24 hrs by SRB assay; settings: OVCAR-4, 24 h, read-out: Activity
[18] = Cytotoxicity against human HCT116 cells assessed as cell growth at 10 uM after 24 hrs by SRB assay; settings: HCT-116, 24 h, read-out: Activity
[19] = Cytotoxicity against human MOLT4 cells assessed as cell growth at 10 uM after 24 hrs by SRB assay; settings: MOLT-4, 24 h, read-out: Activity
[20] = Cytotoxicity against human HL-60(TB) cells assessed as cell growth at 10 uM after 24 hrs by SRB assay; settings: HL-60, 24 h, read-out: Activity

Row | SMILES | growth at 10 µM (ACHN) | growth at 10 µM (K562) | growth at 10 µM [1] | growth at 10 µM [2] | growth at 10 µM (Malme-3M) | growth at 10 µM (MCF7) | growth at 10 µM [3] | growth at 10 µM [4] | growth at 10 µM [5] | growth at 10 µM (SK-MEL-28) | growth at 10 µM [6] | growth at 10 µM [7] | growth at 10 µM (CCRF-CEM) | growth at 10 µM (A549) | growth at 10 µM [8] | growth at 10 µM [9] | growth at 10 µM (KM12) | growth at 10 µM (T47D) | growth at 10 µM (SR) | growth at 10 µM (MDA-MB-435) | other results
1 | Cc1cc(Cl)ccc1C(=O)Nc1cc(-c2cccnc2)nc(NCCCN2CCOCC2)n1 | 100% | 113% | 109% | 101% | 104% | 90.1% | 89.8% | 111% | 102% | 95.3% | 106% | 97.6% | 101% | 87.7% | 87.2% | 91.3% | 101% | 96.4% | 98.7% | 101% | growth at 10 µM (A498): 95.2%; growth at 10 µM (MDA-MB-468): 88.5%; growth at 10 µM (SK-MEL-2): 106%; growth at 10 µM [10]: 91.4%; growth at 10 µM [11]: 100%; growth at 10 µM (M14): 101%; growth at 10 µM (NCI-H522): 82.8%; growth at 10 µM (EKVX): 99.8%; growth at 10 µM (NCI-H23): 96.7%; growth at 10 µM (MDA-MB-231): 97.3%; growth at 10 µM [12]: 107%; growth at 10 µM [13]: 109%; growth at 10 µM [14]: 95%; growth at 10 µM (SN12C): 111%; growth at 10 µM [15]: 101%; growth at 10 µM [16]: 101%; growth at 10 µM [17]: 97.7%; growth at 10 µM [18]: 99.8%; growth at 10 µM [19]: 98%
2 | COCCCNc1nc(NC(=O)c2cc(Br)cc(C(F)(F)F)c2)cc(-c2cccnc2)n1 | 87.3% | 73.3% | 104% | 81.4% | 99.7% | 83.8% | 95.9% | 109% | 90.5% | 98.6% | 99.5% | 100% | 80.8% | 82% | 95.8% | 115% | 105% | 65% | 83.4% | 88.4% | growth at 10 µM [20]: 94.6%; growth at 10 µM (A498): 76.2%; growth at 10 µM (MDA-MB-468): 82.8%; growth at 10 µM (SK-MEL-2): 80.6%; growth at 10 µM [10]: 94%; growth at 10 µM [11]: 114%; growth at 10 µM (M14): 96.5%; growth at 10 µM (NCI-H522): 83.5%; growth at 10 µM (EKVX): 96%; growth at 10 µM (NCI-H23): 103%; growth at 10 µM (MDA-MB-231): 75.8%; growth at 10 µM [12]: 70.6%; growth at 10 µM [13]: 91.3%; growth at 10 µM [14]: 91%; growth at 10 µM (SN12C): 89.1%; growth at 10 µM [15]: 103%; growth at 10 µM [16]: 90.5%; growth at 10 µM [17]: 92.3%; growth at 10 µM [18]: 85.6%; growth at 10 µM [19]: 80.1%
3 | O=C(Nc1cc(-c2cccnc2)nc(NCCCN2CCOCC2)n1)c1cc(Br)cc(C(F)(F)F)c1 | 75.6% | 8.84% | -16.8% | 61.8% | -7.83% | 38.6% | 69.6% | 80% | -6.13% | -49.8% | 56.6% | 82.5% | 42.8% | 67.9% | 65.4% | 72.1% | 80% | 46.4% | 4.25% | 9.55% | growth at 10 µM [20]: 48.5%; growth at 10 µM (A498): 53.7%; growth at 10 µM (MDA-MB-468): 52.8%; growth at 10 µM (SK-MEL-2): 81.3%; growth at 10 µM [10]: 66.5%; growth at 10 µM [11]: 37.8%; growth at 10 µM (M14): -72.1%; growth at 10 µM (NCI-H522): 60.2%; growth at 10 µM (EKVX): 77.4%; growth at 10 µM (NCI-H23): 80.9%; growth at 10 µM (MDA-MB-231): 32.7%; growth at 10 µM [12]: 57.7%; growth at 10 µM [13]: 63.1%; growth at 10 µM [14]: -27.1%; growth at 10 µM (SN12C): 67.2%; growth at 10 µM [15]: 52.8%; growth at 10 µM [16]: 60.9%; growth at 10 µM [17]: 62.2%; growth at 10 µM [18]: 35.7%; growth at 10 µM [19]: 45.1%
